Data published in ChEMBL document CHEMBL4229513, “Decoy peptides derived from the extracellular domain of toll-like receptor 2 (TLR2) show anti-inflammatory properties” (Bioorg Med Chem, 2018).
The source made the active and inactive calls. The calls are words filed in the database; no cut-off is given here.

How the values were obtained:
Type in all cases: cell-based
[1] = molecular target: T1, Toll-like receptor 1/2 (Mus musculus) (UniProt Q9QUN7+Q9EPQ1); assay: Antagonist activity at TLR2/TLR1 in mouse BMDM assessed as inhibition of Rhodamine-labeled Pam3CSK4-stimulated receptor internalization at 1 uM preincubated for 1 hr followed by Rhodamine-Pam3CSK4 stimulation for 20 mins by FACS analysis
Toll-like receptor 1/2 [2] = molecular target: T2, Toll-like receptor 1/2 (Homo sapiens, UniProt O60603+Q15399); assay: Antagonist activity at FLAG-tagged human TLR2/TLR1 expressed in HEK293 cells assessed as inhibition of Pam3CSK4-stimulated MAPK p38 phosphorylation at Thr180/Tyr182 residues at 25 uM preincubated for 1 hr followed by Pam3CSK4 stimulation for 35 mins by immunoblot analysis
Toll-like receptor 1/2 [3] = molecular target: T2, Toll-like receptor 1/2; assay: Antagonist activity at FLAG-tagged human TLR2/TLR1 expressed in HEK293 cells assessed as inhibition of Pam3CSK4-stimulated JNK phosphorylation at Thr183/Tyr185 residues at 25 uM preincubated for 1 hr followed by Pam3CSK4 stimulation for 35 mins by immunoblot analysis
Toll-like receptor 1/2 [4] = molecular target: T2, Toll-like receptor 1/2; assay: Antagonist activity at FLAG-tagged human TLR2/TLR1 expressed in HEK293 cells co-expressing pGL3-Elam.luc assessed as inhibition of Pam3CSK4-stimulated NF-kappaB activation at 50 uM preincubated for 1 hr followed by Pam3CSK4 stimulation for 5 hrs by luciferase reporter gene assay relative to control
Toll-like receptor 1/2 [5] = molecular target: T2, Toll-like receptor 1/2; assay: Antagonist activity at FLAG-tagged human TLR2/TLR1 expressed in HEK293 cells co-expressing pGL3-Elam.luc assessed as Pam3CSK4-stimulated NF-kappaB activation at 50 uM preincubated for 1 hr followed by Pam3CSK4 stimulation for 5 hrs by luciferase reporter gene assay relative to control; set-up: scale not given: the % may be the effect or the level left
Toll-like receptor 1/2 [6] = molecular target: T2, Toll-like receptor 1/2; assay: Antagonist activity at FLAG-tagged human TLR2/TLR1 expressed in HEK293 cells co-expressing pGL3-Elam.luc assessed as inhibition of Pam3CSK4-stimulated NF-kappaB activation preincubated for 1 hr followed by Pam3CSK4 stimulation for 5 hrs by luciferase reporter gene assay
TLR2/TLR6 (Homo sapiens) = TLR2/TLR6 (Homo sapiens) (UniProt O60603+Q9Y2C9); assay: Antagonist activity at FLAG-tagged human TLR2/TLR6 expressed in HEK293 cells co-expressing pGL3-Elam.luc assessed as inhibition of Pam2CSK4-stimulated NF-kappaB activation preincubated for 1 hr followed by Pam2CSK4 stimulation for 5 hrs by luciferase reporter gene assay
Toll-like receptor 1/2 [7] = molecular target: T2, Toll-like receptor 1/2; assay: Antagonist activity at FLAG-tagged human TLR2/TLR1 expressed in HEK293 cells assessed as inhibition of Pam3CSK4-stimulated MAPK p38 phosphorylation at Thr180/Tyr182 residues at 50 uM preincubated for 1 hr followed by Pam3CSK4 stimulation for 35 mins by immunoblot analysis
Toll-like receptor 1/2 [8] = molecular target: T2, Toll-like receptor 1/2; assay: Antagonist activity at FLAG-tagged human TLR2/TLR1 expressed in HEK293 cells assessed as inhibition of Pam3CSK4-stimulated JNK phosphorylation at Thr183/Tyr185 residues at 50 uM preincubated for 1 hr followed by Pam3CSK4 stimulation for 35 mins by immunoblot analysis
Toll-like receptor 1/2 [9] = molecular target: T2, Toll-like receptor 1/2; assay: Antagonist activity at FLAG-tagged human TLR2/TLR1 expressed in HEK293 cells assessed as inhibition of Pam3CSK4-stimulated IkBalpha degradation at 50 uM preincubated for 1 hr followed by Pam3CSK4 stimulation for 35 mins by immunoblot analysis
Toll-like receptor 1/2 [10] = molecular target: T2, Toll-like receptor 1/2; assay: Antagonist activity at TLR2/TLR1 in human THP1 cells assessed as inhibition of Pam3CSK4-stimulated non-canonical NF-kB pathway by measuring reduction in p52 level at 50 uM preincubated for 1 hr followed by Pam3CSK4 stimulation for 2 hrs by immunoblot analysis
Toll-like receptor 1/2 [11] = molecular target: T2, Toll-like receptor 1/2; assay: Antagonist activity at TLR2/TLR1 in human PBMC assessed as inhibition of Pam3CSK4-stimulated TNFalpha production at 50 uM preincubated with cells followed by overnight Pam3CSK4 stimulation by ELISA relative to control
[12] = molecular target: T1, Toll-like receptor 1/2 (Mus musculus); assay: Antagonist activity at TLR2/TLR1 in mouse BMDM assessed as inhibition of Pam3CSK4-stimulated TNFalpha production by measuring TNFalpha level at 25 uM preincubated for 1 hr followed by Pam3CSK4 stimulation for 11 hrs by ELISA relative to control; set-up: scale not given: the % may be the effect or the level left
Toll-like receptor 1/2 [13] = molecular target: T2, Toll-like receptor 1/2; assay: Antagonist activity at TLR2/TLR1 in human PBMC assessed as inhibition of Pam3CSK4-stimulated IL-10 production by measuring IL-10 level at 100 uM preincubated with cells followed by overnight Pam3CSK4 stimulation by ELISA (reference value: 794 pg/ml)
[14] = molecular target: T3, Toll-like receptor 4 (Mus musculus) (UniProt Q9QUK6); assay: Antagonist activity at TLR4 in mouse BMDM assessed as inhibition of LPS-stimulated TNFalpha production at 25 uM preincubated for 1 hr followed by LPS stimulation for 11 hrs by ELISA
T3 sequence (whole entry): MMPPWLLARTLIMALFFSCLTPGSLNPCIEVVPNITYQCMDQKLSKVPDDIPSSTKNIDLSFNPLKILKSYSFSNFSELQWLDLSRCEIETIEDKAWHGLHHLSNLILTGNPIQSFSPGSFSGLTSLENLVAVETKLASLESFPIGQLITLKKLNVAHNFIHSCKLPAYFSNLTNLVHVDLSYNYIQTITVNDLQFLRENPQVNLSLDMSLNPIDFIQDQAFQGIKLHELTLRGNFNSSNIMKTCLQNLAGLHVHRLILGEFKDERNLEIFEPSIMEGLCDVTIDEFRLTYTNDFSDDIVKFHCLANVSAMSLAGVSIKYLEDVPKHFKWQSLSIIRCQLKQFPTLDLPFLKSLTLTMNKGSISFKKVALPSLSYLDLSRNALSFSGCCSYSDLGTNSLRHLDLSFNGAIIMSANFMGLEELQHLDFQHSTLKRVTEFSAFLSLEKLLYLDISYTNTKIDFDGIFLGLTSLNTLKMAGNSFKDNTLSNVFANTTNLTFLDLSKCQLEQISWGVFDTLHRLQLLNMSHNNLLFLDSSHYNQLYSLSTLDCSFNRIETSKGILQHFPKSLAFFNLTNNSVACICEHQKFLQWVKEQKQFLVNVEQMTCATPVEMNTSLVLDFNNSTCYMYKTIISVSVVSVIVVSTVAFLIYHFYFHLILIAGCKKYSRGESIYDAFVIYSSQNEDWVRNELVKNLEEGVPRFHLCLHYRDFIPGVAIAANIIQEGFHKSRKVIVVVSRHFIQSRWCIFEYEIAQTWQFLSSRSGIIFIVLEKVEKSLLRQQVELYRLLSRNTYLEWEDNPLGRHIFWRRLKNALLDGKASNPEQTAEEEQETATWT

[15] = molecular target: TLR7 and TLR8 (Mus musculus) (UniProt P58681+P58682); assay: Antagonist activity at TLR7/TLR8 in mouse BMDM assessed as inhibition of R848-stimulated TNFalpha production at 25 uM preincubated for 1 hr followed by R848 stimulation for 11 hrs by ELISA
[16] = molecular target: T4, Toll-like receptor 3 (Mus musculus) (UniProt Q99MB1); assay: Antagonist activity at TLR3 in mouse BMDM assessed as inhibition of poly I:C-stimulated TNFalpha production at 25 uM preincubated for 1 hr followed by poly I:C stimulation for 11 hrs by ELISA
T4 sequence (whole entry): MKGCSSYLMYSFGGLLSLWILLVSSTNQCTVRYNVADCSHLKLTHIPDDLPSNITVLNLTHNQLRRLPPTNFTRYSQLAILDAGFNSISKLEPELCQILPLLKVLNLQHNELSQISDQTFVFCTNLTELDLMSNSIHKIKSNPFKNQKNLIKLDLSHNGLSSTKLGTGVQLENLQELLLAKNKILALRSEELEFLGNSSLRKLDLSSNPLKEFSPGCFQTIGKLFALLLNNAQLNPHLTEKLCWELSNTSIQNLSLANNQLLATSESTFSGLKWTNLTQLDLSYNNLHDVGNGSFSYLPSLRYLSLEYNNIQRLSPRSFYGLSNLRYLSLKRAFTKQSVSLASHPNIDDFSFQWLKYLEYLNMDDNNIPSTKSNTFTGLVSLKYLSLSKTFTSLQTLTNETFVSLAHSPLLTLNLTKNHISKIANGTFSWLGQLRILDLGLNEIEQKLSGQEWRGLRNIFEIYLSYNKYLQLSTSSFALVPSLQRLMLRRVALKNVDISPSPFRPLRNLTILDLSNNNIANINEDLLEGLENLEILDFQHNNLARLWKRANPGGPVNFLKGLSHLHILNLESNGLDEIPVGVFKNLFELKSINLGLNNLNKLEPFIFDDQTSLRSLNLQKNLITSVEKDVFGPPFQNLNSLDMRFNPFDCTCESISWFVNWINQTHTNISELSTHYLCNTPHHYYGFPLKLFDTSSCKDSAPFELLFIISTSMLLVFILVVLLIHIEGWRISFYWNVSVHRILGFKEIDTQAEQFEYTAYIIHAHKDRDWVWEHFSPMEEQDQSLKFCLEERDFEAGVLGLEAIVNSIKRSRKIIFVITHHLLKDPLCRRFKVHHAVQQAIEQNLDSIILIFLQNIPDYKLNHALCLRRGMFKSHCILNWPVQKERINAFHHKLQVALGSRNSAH

HEK293 = assay: Cytotoxicity against HEK293 cells at 100 uM after overnight incubation by CCK8 assay; details: human, hek293, 100 µM
BMDM = assay: Cytotoxicity against mouse BMDM at 100 uM after overnight incubation by CCK8 assay
THP-1 = assay: Cytotoxicity against human THP1 cells at 100 uM after overnight incubation by CCK8 assay; details: thp-1, 100 µM
[17] = molecular target: T1, Toll-like receptor 1/2 (Mus musculus); assay: Antagonist activity at TLR2/TLR1 in mouse BMDM assessed as inhibition of Rhodamine-labeled Pam3CSK4-stimulated receptor internalization at 50 uM preincubated for 1 hr followed by Rhodamine-Pam3CSK4 stimulation for 20 mins by DAPI staining based phase contrast fluorescence microscopic method
[18] = molecular target: T1, Toll-like receptor 1/2 (Mus musculus); assay: Antagonist activity at TLR2/TLR1 in mouse BMDM assessed as Rhodamine-labeled Pam3CSK4-stimulated receptor internalization at 50 uM preincubated for 1 hr followed by Rhodamine-Pam3CSK4 stimulation for 20 mins by FACS analysis relative to control; set-up: scale not given: the % may be the effect or the level left
Toll-like receptor 1/2 [19] = molecular target: T2, Toll-like receptor 1/2; assay: Antagonist activity at FLAG-tagged human TLR2/YFP-tagged TLR1 expressed in HEK293 cells assessed as inhibition of Pam3CSK4-stimulated TLR1/TLR2 heterodimerization at 25 uM preincubated for 1 hr followed by Pam3CSK4 stimulation for 15 mins by immunoblot analysis
Toll-like receptor 1/2 [20] = molecular target: T2, Toll-like receptor 1/2; assay: Antagonist activity at TLR2/TLR1 in human PBMC assessed as inhibition of Pam3CSK4-stimulated IL-10 production at 100 uM preincubated with cells followed by overnight Pam3CSK4 stimulation by ELISA

T2 sequence (O60603 whole entry): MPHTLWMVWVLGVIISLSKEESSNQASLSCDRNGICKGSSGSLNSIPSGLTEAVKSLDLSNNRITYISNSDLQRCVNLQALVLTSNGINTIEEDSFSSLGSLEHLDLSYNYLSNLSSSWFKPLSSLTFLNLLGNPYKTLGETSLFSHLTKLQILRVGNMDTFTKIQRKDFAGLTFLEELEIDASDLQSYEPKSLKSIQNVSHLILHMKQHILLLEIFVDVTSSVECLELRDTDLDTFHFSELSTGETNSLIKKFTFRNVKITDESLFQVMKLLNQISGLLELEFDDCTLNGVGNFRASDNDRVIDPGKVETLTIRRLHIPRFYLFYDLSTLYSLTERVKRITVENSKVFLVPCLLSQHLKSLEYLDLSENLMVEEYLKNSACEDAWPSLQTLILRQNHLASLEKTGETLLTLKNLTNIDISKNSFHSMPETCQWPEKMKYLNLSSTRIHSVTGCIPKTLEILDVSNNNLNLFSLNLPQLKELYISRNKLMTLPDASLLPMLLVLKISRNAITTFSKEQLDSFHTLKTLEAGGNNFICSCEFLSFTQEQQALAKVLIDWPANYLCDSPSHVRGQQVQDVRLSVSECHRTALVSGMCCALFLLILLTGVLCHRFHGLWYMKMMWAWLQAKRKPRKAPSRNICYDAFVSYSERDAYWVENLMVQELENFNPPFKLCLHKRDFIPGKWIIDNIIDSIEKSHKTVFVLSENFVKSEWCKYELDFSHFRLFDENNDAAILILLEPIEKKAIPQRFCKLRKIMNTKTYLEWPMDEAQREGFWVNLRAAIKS
T2 sequence (Q15399 whole entry): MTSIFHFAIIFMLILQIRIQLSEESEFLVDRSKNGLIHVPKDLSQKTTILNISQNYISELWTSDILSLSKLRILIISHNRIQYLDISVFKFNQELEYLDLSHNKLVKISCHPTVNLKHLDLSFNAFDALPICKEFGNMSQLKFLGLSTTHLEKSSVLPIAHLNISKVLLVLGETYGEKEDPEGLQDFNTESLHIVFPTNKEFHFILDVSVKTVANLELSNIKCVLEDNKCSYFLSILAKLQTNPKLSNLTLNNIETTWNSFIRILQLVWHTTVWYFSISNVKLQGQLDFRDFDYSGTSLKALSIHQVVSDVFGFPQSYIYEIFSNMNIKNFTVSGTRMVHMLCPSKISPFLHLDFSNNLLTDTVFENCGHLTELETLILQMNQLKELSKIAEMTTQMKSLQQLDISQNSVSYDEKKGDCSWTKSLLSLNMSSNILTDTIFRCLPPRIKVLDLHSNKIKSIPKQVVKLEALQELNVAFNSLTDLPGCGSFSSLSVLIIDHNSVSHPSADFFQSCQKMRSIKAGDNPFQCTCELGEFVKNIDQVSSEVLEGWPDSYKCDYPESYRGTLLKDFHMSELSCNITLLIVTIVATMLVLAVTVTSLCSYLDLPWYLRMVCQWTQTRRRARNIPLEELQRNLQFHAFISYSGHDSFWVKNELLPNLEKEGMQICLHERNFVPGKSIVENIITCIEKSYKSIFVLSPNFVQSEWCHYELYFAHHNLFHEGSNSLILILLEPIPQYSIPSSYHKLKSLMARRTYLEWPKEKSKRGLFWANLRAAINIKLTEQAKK
Sequence of TLR7 and TLR8 (Mus musculus) (P58681 whole entry, looked up): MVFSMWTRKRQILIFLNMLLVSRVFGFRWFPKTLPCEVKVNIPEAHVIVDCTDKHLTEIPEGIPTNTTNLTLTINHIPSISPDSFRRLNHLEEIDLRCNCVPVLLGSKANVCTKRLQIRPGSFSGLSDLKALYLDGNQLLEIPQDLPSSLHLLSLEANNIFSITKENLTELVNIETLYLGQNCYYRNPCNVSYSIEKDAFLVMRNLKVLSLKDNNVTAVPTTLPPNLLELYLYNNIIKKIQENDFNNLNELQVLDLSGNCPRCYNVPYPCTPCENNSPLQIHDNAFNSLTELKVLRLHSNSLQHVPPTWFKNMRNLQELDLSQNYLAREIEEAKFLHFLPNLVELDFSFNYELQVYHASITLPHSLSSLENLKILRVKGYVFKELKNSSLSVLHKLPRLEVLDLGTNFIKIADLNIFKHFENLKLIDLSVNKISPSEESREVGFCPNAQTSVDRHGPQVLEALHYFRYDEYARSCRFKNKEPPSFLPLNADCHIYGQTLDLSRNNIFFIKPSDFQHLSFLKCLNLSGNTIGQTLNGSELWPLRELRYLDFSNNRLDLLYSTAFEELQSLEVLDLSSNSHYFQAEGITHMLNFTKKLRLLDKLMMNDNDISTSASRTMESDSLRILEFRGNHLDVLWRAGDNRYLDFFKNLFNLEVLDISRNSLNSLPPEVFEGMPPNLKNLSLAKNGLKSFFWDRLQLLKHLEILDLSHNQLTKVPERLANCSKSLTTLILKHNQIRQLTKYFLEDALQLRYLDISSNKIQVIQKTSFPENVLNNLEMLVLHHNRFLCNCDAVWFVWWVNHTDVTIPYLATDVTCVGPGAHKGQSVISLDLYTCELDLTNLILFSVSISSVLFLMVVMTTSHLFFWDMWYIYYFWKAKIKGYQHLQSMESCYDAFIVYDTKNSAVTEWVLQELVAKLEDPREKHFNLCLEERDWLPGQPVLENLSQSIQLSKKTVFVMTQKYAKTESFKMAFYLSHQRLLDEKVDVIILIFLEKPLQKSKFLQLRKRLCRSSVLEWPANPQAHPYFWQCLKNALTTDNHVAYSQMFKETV
Sequence of TLR7 and TLR8 (Mus musculus) (P58682 whole entry, looked up): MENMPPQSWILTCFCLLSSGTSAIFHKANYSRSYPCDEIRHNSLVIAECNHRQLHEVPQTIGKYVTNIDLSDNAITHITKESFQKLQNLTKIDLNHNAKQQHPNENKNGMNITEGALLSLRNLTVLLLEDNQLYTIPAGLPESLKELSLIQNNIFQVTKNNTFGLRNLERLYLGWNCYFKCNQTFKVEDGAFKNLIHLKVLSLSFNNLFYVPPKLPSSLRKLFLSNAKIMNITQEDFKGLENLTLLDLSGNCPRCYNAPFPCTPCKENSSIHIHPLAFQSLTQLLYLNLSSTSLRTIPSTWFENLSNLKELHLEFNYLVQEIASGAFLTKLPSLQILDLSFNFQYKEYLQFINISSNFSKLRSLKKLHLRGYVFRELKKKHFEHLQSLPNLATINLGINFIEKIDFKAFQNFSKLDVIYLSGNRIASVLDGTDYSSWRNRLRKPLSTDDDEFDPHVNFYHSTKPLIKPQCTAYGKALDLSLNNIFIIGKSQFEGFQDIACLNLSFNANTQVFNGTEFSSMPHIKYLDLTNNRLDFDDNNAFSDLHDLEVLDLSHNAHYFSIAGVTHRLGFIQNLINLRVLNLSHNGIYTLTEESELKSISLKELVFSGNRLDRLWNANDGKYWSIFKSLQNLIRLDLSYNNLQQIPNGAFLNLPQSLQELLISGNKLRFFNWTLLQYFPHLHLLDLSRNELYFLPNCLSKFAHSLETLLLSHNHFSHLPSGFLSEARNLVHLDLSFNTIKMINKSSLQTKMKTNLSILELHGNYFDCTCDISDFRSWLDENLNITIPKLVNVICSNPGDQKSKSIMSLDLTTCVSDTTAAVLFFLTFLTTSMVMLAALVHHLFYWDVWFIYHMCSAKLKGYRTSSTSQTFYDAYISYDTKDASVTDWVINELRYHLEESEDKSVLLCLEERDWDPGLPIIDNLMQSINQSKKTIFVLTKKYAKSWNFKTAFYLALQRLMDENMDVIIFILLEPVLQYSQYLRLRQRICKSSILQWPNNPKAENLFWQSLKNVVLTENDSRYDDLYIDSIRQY

C=C1[C@@H](C)[C@H]2[C@H](Cc3ccccc3)NC(=O)[C@]23[C@H](OC(C)=O)/C=C/[C@@](C)(O)C(=O)[C@@H](C)C/C=C/[C@H]3[C@@H]1O
inhibition [1]: Active

Cc1cc(NC(=O)NC(=O)c2ccccc2N(C)C)ccc1Oc1ncc(Br)cn1
inhibition (Toll-like receptor 1/2 [2]): Active | inhibition (Toll-like receptor 1/2 [3]): Active

H-ENLMVEEY-OH
inhibition (Toll-like receptor 1/2 [4]): 66%

H-ENLMVEEYLK-OH
Activity (Toll-like receptor 1/2 [5]): 51% | IC50 (Toll-like receptor 1/2 [6]): 45.8 µM | inhibition (Toll-like receptor 1/2 [6]): Dose-dependent effect | inhibition (TLR2/TLR6 (Homo sapiens)): inactive | inhibition (Toll-like receptor 1/2 [7]): Active | inhibition (Toll-like receptor 1/2 [8]): Active | inhibition (Toll-like receptor 1/2 [9]): inactive | inhibition (Toll-like receptor 1/2 [10]): Active | inhibition (Toll-like receptor 1/2 [11]): 50% | Activity [12]: 80% | Activity (Toll-like receptor 1/2 [13]): 727 pg/mL | inhibition [14]: inactive | inhibition [15]: inactive | inhibition [16]: inactive | Activity (HEK293): Non-Toxic | Activity (BMDM): Non-Toxic | Activity (THP-1): Non-Toxic | inhibition [17]: Active | Activity [18]: 70.2% | inhibition (Toll-like receptor 1/2 [19]): Active

H-ENSKVFLVPC-OH
inhibition (Toll-like receptor 1/2 [4]): Active

H-HIPRFYLFY-OH
inhibition (Toll-like receptor 1/2 [4]): 56%

H-HIPRFYLFYD-OH
Activity (Toll-like receptor 1/2 [5]): 51% | IC50 (Toll-like receptor 1/2 [6]): 49.2 µM | inhibition (Toll-like receptor 1/2 [6]): Dose-dependent effect | inhibition (TLR2/TLR6 (Homo sapiens)): inactive | inhibition (Toll-like receptor 1/2 [7]): Active | inhibition (Toll-like receptor 1/2 [8]): Active | inhibition (Toll-like receptor 1/2 [9]): inactive | inhibition (Toll-like receptor 1/2 [10]): Active | inhibition (Toll-like receptor 1/2 [11]): 50% | Activity [12]: 70% | inhibition (Toll-like receptor 1/2 [20]): Active | inhibition [14]: inactive | inhibition [15]: inactive | inhibition [16]: inactive | Activity (HEK293): Non-Toxic | Activity (BMDM): Non-Toxic | Activity (THP-1): Non-Toxic | inhibition [17]: Active | Activity [18]: 37.4% | inhibition (Toll-like receptor 1/2 [19]): Active

H-LHIPRFYLFYD-OH
inhibition (Toll-like receptor 1/2 [4]): 56%

H-RLHIPRFYL-OH
inhibition (Toll-like receptor 1/2 [4]): 81.9%

H-SENLMVEEYLK-OH
inhibition (Toll-like receptor 1/2 [4]): 56%

H-TIRRLHIPR-OH
inhibition (Toll-like receptor 1/2 [4]): 84.1%

H-VETLTIRRL-OH
inhibition (Toll-like receptor 1/2 [4]): 86%

H-VVSDVFGFP-OH
inhibition (Toll-like receptor 1/2 [4]): Active
